This data set relates to COS-1 cells. The experiment in a line: In vitro mammalian cytotoxicity assay (Resazurin). A general note: Alamar Blue is a resazurin reagent that responds to reducing activity.
`Cc1ccc(S(=O)(=O)NC(=O)C#Cc2cc(N(C)C)c3c(c2O)C(=O)C2=C(O)[C@]4(C#N)C(=O)C(C(N)=O)=C(O)[C@@H](N(C)C)[C@]4(N)C[C@]2(N)C3)cc1` [JJ]: the “In Vitro Cytotoxicity” value is listed as “* (toxicities greater than >25 μg/ml are represented by *)”.

On to `CN(C)[C@@H]1C(O)=C(C(N)=O)C(=O)[C@@]2(C#N)C(O)=C3C(=O)c4c(O)c(CN)cc(-c5cccc([N+](=O)O)c5)c4C[C@@]3(N)C[C@@]12N` [JP], for which the “In Vitro Cytotoxicity” value is recorded as “* (toxicities greater than >25 μg/ml are represented by *)”.

Regarding `CN(C)[C@@H]1C(O)=C(C(N)=O)C(=O)[C@@]2(C#N)C(O)=C3C(=O)c4c(O)c(CN5C(=O)c6ccccc6C5=O)cc(-c5cccc([N+](=O)O)c5)c4C[C@@]3(N)C[C@@]12N` [JQ], the “In Vitro Cytotoxicity” value is listed as “** (toxicities less than 25 μg/mL are represented by **)”.

For `CN(C)[C@@H]1C(O)=C(C(N)=O)C(=O)[C@@]2(C#N)C(O)=C3C(=O)c4c(O)ccc(C(=O)O)c4C[C@@]3(N)C[C@@]12N` [JR], the “In Vitro Cytotoxicity” value is “* (toxicities greater than >25 μg/ml are represented by *)”.

Consider `CCCc1cc(CN)c(O)c2c1C[C@@]1(N)C[C@@]3(N)[C@H](N(C)C)C(O)=C(C(N)=O)C(=O)[C@@]3(C#N)C(O)=C1C2=O` [JS], for which the “In Vitro Cytotoxicity” value is recorded as “* (toxicities greater than >25 μg/ml are represented by *)”.

`CN(C)[C@@H]1C(O)=C(C(N)=O)C(=O)[C@@]2(C#N)C(O)=C3C(=O)c4c(O)c(CN)cc(-c5ccc(I)cc5)c4C[C@@]3(N)C[C@@]12N` [JT]: the “In Vitro Cytotoxicity” value is listed as “* (toxicities greater than >25 μg/ml are represented by *)”.

With `CCCCCc1ccc(O)c2c1C[C@@]1(N)C[C@@]3(N)[C@H](N(C)C)C(O)=C(C(N)=O)C(=O)[C@@]3(C#N)C(O)=C1C2=O` [JU], the “In Vitro Cytotoxicity” value is given as “** (toxicities less than 25 μg/mL are represented by **)”.

Consider `CCC#Cc1ccc(O)c2c1C[C@@]1(N)C[C@@]3(N)[C@H](N(C)C)C(O)=C(C(N)=O)C(=O)[C@@]3(C#N)C(O)=C1C2=O` [JW], for which the “In Vitro Cytotoxicity” value is “** (toxicities less than 25 μg/mL are represented by **)”.

In the case of `CN(C)c1cc(CCCNS(C)(=O)=O)c(O)c2c1C[C@@]1(N)C[C@@]3(N)[C@H](N(C)C)C(O)=C(C(N)=O)C(=O)[C@@]3(C#N)C(O)=C1C2=O` [JX], the “In Vitro Cytotoxicity” value is “* (toxicities greater than >25 μg/ml are represented by *)”.

Take `CC(C)S(=O)(=O)NCC#Cc1cc(N(C)C)c2c(c1O)C(=O)C1=C(O)[C@]3(C#N)C(=O)C(C(N)=O)=C(O)[C@@H](N(C)C)[C@]3(N)C[C@]1(N)C2` [JY]: the “In Vitro Cytotoxicity” value is “* (toxicities greater than >25 μg/ml are represented by *)”.

Take `CN(C)c1cc(-c2ccc(CN3CCCC3)cc2)c(O)c2c1C[C@@]1(N)C[C@@]3(N)[C@H](N(C)C)C(O)=C(C(N)=O)C(=O)[C@@]3(C#N)C(O)=C1C2=O` [JZ]: the “In Vitro Cytotoxicity” value is recorded as “** (toxicities less than 25 μg/mL are represented by **)”.

Take `CCCC#Cc1ccc(O)c2c1C[C@@]1(N)C[C@@]3(N)[C@H](N(C)C)C(O)=C(C(N)=O)C(=O)[C@@]3(C#N)C(O)=C1C2=O` [KA]: the “In Vitro Cytotoxicity” value is “** (toxicities less than 25 μg/mL are represented by **)”.

`CN(C)[C@@H]1C(O)=C(C(N)=O)C(=O)[C@@]2(C#N)C(O)=C3C(=O)c4c(O)c(CN)cc(-c5cccc([N+](=O)O)c5)c4C[C@@]3(N)C[C@@]12N` [KB]: the “In Vitro Cytotoxicity” value is recorded as “** (toxicities less than 25 μg/mL are represented by **)”.

For the compound `CN(C)[C@@H]1C(O)=C(C(N)=O)C(=O)[C@@]2(C#N)C(O)=C3C(=O)c4c(O)c(CNC(=O)CCl)cc(-c5ccccc5)c4C[C@@]3(N)C[C@@]12N` [KD], the “In Vitro Cytotoxicity” value is given as “** (toxicities less than 25 μg/mL are represented by **)”.

Turning to `CCc1cc(C#CC2=CCCCC2)c(O)c2c1C[C@@]1(N)C[C@@]3(N)[C@H](N(C)C)C(O)=C(C(N)=O)C(=O)[C@@]3(C#N)C(O)=C1C2=O` [KE], the “In Vitro Cytotoxicity” value is recorded as “** (toxicities less than 25 μg/mL are represented by **)”.

Regarding `CN(C)c1cc(CCc2ccc(F)cc2)c(O)c2c1C[C@@]1(N)C[C@@]3(N)[C@H](N(C)C)C(O)=C(C(N)=O)C(=O)[C@@]3(C#N)C(O)=C1C2=O` [KF], the “In Vitro Cytotoxicity” value was “** (toxicities less than 25 μg/mL are represented by **)”.

As to `CN(C)c1ccc(O)c2c1C[C@@]1(N)C[C@@]3(N)[C@H](N(C)C)C(O)=C(C(=O)NCNC(=O)CCl)C(=O)[C@@]3(C#N)C(O)=C1C2=O` [KG], the “In Vitro Cytotoxicity” value is given as “** (toxicities less than 25 μg/mL are represented by **)”.

With `CCOC(=O)Nc1cc(N(C)C)c2c(c1O)C(=O)C1=C(O)[C@]3(C#N)C(=O)C(C(N)=O)=C(O)[C@@H](N(C)C)[C@]3(N)C[C@]1(N)C2` [KH], the “In Vitro Cytotoxicity” value is “** (toxicities less than 25 μg/mL are represented by **)”.

In the case of `CCCCOC(=O)Nc1cc(N(C)C)c2c(c1O)C(=O)C1=C(O)[C@]3(C#N)C(=O)C(C(N)=O)=C(O)[C@@H](N(C)C)[C@]3(N)C[C@]1(N)C2` [KI], the “In Vitro Cytotoxicity” value is listed as “** (toxicities less than 25 μg/mL are represented by **)”.

Consider `CCNC(=O)Nc1cc(N(C)C)c2c(c1O)C(=O)C1=C(O)[C@]3(C#N)C(=O)C(C(N)=O)=C(O)[C@@H](N(C)C)[C@]3(N)C[C@]1(N)C2` [KJ], for which the “In Vitro Cytotoxicity” value is reported as “** (toxicities less than 25 μg/mL are represented by **)”.

As to `CN(C)c1cc(C#CCc2ccccc2)c(O)c2c1C[C@@]1(N)C[C@@]3(N)[C@H](N(C)C)C(O)=C(C(N)=O)C(=O)[C@@]3(C#N)C(O)=C1C2=O` [KL], the “In Vitro Cytotoxicity” value is listed as “** (toxicities less than 25 μg/mL are represented by **)”.

For `CN(C)c1cc(CCC2CCCC2)c(O)c2c1C[C@@]1(N)C[C@@]3(N)[C@H](N(C)C)C(O)=C(C(N)=O)C(=O)[C@@]3(C#N)C(O)=C1C2=O` [KM], the “In Vitro Cytotoxicity” value was “** (toxicities less than 25 μg/mL are represented by **)”.

With `CN(C)c1cc(C#CC2=CCCC2)c(O)c2c1C[C@@]1(N)C[C@@]3(N)[C@H](N(C)C)C(O)=C(C(N)=O)C(=O)[C@@]3(C#N)C(O)=C1C2=O` [KN], the “In Vitro Cytotoxicity” value is “** (toxicities less than 25 μg/mL are represented by **)”.

Turning to `CCCCCN(Cc1cccc(-c2ccc(O)c3c2C[C@@]2(N)C[C@@]4(N)[C@H](N(C)C)C(O)=C(C(N)=O)C(=O)[C@@]4(C#N)C(O)=C2C3=O)c1)P(=O)(OCC)OCC` [KO], the “In Vitro Cytotoxicity” value is reported as “* (toxicities greater than >25 μg/ml are represented by *)”.

As to `CCOP(=O)(OCC)C(Nc1ccccc1)c1ccc(-c2cc(N(C)C)c3c(c2O)C(=O)C2=C(O)[C@]4(C#N)C(=O)C(C(N)=O)=C(O)[C@@H](N(C)C)[C@]4(N)C[C@]2(N)C3)cc1` (stereo partly shown) [KP], the “In Vitro Cytotoxicity” value is listed as “* (toxicities greater than >25 μg/ml are represented by *)”.

`CC(C)COC(=O)Nc1cc(N(C)C)c2c(c1O)C(=O)C1=C(O)[C@]3(C#N)C(=O)C(C(N)=O)=C(O)[C@@H](N(C)C)[C@]3(N)C[C@]1(N)C2` [KQ]: the “In Vitro Cytotoxicity” value is on record as “** (toxicities less than 25 μg/mL are represented by **)”.

On to `CSc1ccc(OC(=O)Nc2cc(N(C)C)c3c(c2O)C(=O)C2=C(O)[C@]4(C#N)C(=O)C(C(N)=O)=C(O)[C@@H](N(C)C)[C@]4(N)C[C@]2(N)C3)cc1` [KR], for which the “In Vitro Cytotoxicity” value was “* (toxicities greater than >25 μg/ml are represented by *)”.

Consider `CN(C)[C@@H]1C(O)=C(C(N)=O)C(=O)[C@@]2(C#N)C(O)=C3C(=O)c4c(O)c(C(C)(C)C)cc(-c5cccc([N+](=O)O)c5)c4C[C@@]3(N)C[C@@]12N` [KS], for which the “In Vitro Cytotoxicity” value was “** (toxicities less than 25 μg/mL are represented by **)”.

Take `CN(C)[C@@H]1C(O)=C(C(=O)CC(C)(C)C)C(=O)[C@@]2(C#N)C(O)=C3C(=O)c4c(O)c(C(C)(C)C)cc(-c5cccc([N+](=O)O)c5)c4C[C@@]3(N)C[C@@]12N` [KT]: the “In Vitro Cytotoxicity” value is “** (toxicities less than 25 μg/mL are represented by **)”.

Turning to `CN(C)CC(=O)Nc1ccc2c(c1O)C(=O)C1=C(O)[C@]3(C#N)C(=O)C(C(N)=O)=C(O)[C@@H](N(C)C)[C@]3(N)C[C@]1(N)C2` [KU], the “In Vitro Cytotoxicity” value is given as “* (toxicities greater than >25 μg/ml are represented by *)”.

Regarding `CCCCc1cc(CN)c(O)c2c1C[C@@]1(N)C[C@@]3(N)[C@H](N(C)C)C(O)=C(C(N)=O)C(=O)[C@@]3(C#N)C(O)=C1C2=O` [KV], the “In Vitro Cytotoxicity” value is recorded as “* (toxicities greater than >25 μg/ml are represented by *)”.

As for `CCCCCc1cc(N(C)C)c2c(c1O)C(=O)C1=C(O)[C@]3(C#N)C(=O)C(C(N)=O)=C(O)[C@@H](N(C)C)[C@]3(N)C[C@]1(N)C2` [KW], the “In Vitro Cytotoxicity” value was “** (toxicities less than 25 μg/mL are represented by **)”.

As to `CCCC#Cc1cc(N(C)C)c2c(c1O)C(=O)C1=C(O)[C@]3(C#N)C(=O)C(C(N)=O)=C(O)[C@@H](N(C)C)[C@]3(N)C[C@]1(N)C2` [KX], the “In Vitro Cytotoxicity” value is recorded as “** (toxicities less than 25 μg/mL are represented by **)”.

For `CCCCc1ccc(O)c2c1C[C@@]1(N)C[C@@]3(N)[C@H](N(C)C)C(O)=C(C(N)=O)C(=O)[C@@]3(C#N)C(O)=C1C2=O` [KY], the “In Vitro Cytotoxicity” value is “** (toxicities less than 25 μg/mL are represented by **)”.

As for `CN(C)[C@@H]1C(O)=C(C(N)=O)C(=O)[C@@]2(C#N)C(O)=C3C(=O)c4c(O)c(C(=O)NCC5CCCO5)cc(-c5ccc(F)cc5)c4C[C@@]3(N)C[C@@]12N` (stereo partly shown) [KZ], the “In Vitro Cytotoxicity” value was “* (toxicities greater than >25 μg/ml are represented by *)”.

With `CCCCCc1cc(CC2C(=O)c3ccccc3C2=O)c(O)c2c1C[C@@]1(N)C[C@@]3(N)[C@H](N(C)C)C(O)=C(C(N)=O)C(=O)[C@@]3(C#N)C(O)=C1C2=O` [LA], the “In Vitro Cytotoxicity” value was “** (toxicities less than 25 μg/mL are represented by **)”.

On to `CCCCC#Cc1cc(N(C)C)c2c(c1O)C(=O)C1=C(O)[C@]3(C#N)C(=O)C(C(N)=O)=C(O)[C@@H](N(C)C)[C@]3(N)C[C@]1(N)C2` [LB], for which the “In Vitro Cytotoxicity” value is on record as “** (toxicities less than 25 μg/mL are represented by **)”.

On to `CN(C)c1cc(NC(=O)CNC(C)(C)C)c(O)c2c1C[C@@]1(N)C[C@@]3(N)[C@H](N(C)C)C(O)=C(C(N)=O)C(=O)[C@@]3(C#N)C(O)=C1C2=O` [LC], for which the “In Vitro Cytotoxicity” value is “* (toxicities greater than >25 μg/ml are represented by *)”.

Turning to `CCc1cc(C(C)(C)C)c(O)c2c1C[C@@]1(N)C[C@@]3(N)[C@H](N(C)C)C(O)=C(C(=O)NC(C)(C)C)C(=O)[C@@]3(C#N)C(O)=C1C2=O` [LE], the “In Vitro Cytotoxicity” value is “** (toxicities less than 25 μg/mL are represented by **)”.

For `CCc1cc(CC)c2c(c1O)C(=O)C1=C(O)[C@]3(C#N)C(=O)C(C(N)=O)=C(O)[C@@H](N(C)C)[C@]3(N)C[C@]1(N)C2` [LF], the “In Vitro Cytotoxicity” value was “** (toxicities less than 25 μg/mL are represented by **)”.

For the origin of these results see patent US20050070510A1, “Substituted tetracycline compounds as synergistic antifungal agents” (Paratek Pharmaceuticals, Inc., priority 2001, published 2005).
